In patent US9370555B2, “Surfactant protein D for the treatment of disorders associated with lung injury” (priority 1998, dated 2016):
Entries after “also recorded” stand apart in the source; their conditions may differ.

Columns and labels:
MMP-2 and 9 = assay: Gelatin zymography of conditioned media from alveolar macrophages of SP-D(−/−) mice; type: cell-based, mouse; conditions: for gelatinolytic activity of MMP-2 and 9 in conditioned media: AMs from SP-D(−/−) mice, 20 mM NAC, 200 μM PDTC, 1 μM DPI, 1 mM apocynin, 10 μM SN-50, 24 h
Protocol: Isolation of alveolar macrophages (AMs) from bronchoalveolar lavage (BAL) was performed by instilling ten, 1 ml aliquots of phosphate-buffered saline (PBS). BAL fluid from several animals was pooled to provide sufficient numbers of macrophages for each analysis. The lavage was centrifuged at 1200 rpm at 7 min and pelleted cells were resuspended in serum-free RPMI medium containing 1% of Nutriodoma (Boehringer Mannheim, Indianapolis, Ind.), and counted with a hemocytometer. More than 90% of BAL cells were AM in both WT and SP-D (−/−) mice. For some experiments, alveolar macrophages (AMs) were isolated by differential attachment to tissue culture flasks at 37° C. Non-adherent cells were then removed, and fresh, serum-free medium was added. The adherent AMs were maintained in a humidified atmosphere containing 5% CO2 and 95% air until the end of the experiments. To determine whether increased oxidant production mediated the expression of MMPs by AMs from SP-D (−/−) mice, the cells were treated with N-acetylcysteine (NAC) and pyrrolidine dithiocarbamate (PDTC), both antioxidant reagents as follows: AMs from SP-D (−/−) mice were pooled and placed in culture at a concentration of 5×10^5 cells per well in serum-free RPMI medium. The AMs were treated with 20 mM N-acetylcysteine (NAC), 200 μM pyrolidine dithiocarbamate (PDTC), 1 μM diphenylene iodonium chloride (DPI) (Sigma, St. Louis, Mo.), or 1 mM apocynin (Aldrich, Milwaukee, Wis.). Cells were also incubated with a 10 μM SN-50 (Calbiochem, LaJolla, Calif.), an inhibitor of NF-κB nuclear import. After 6 h incubation, supernatants were removed and the cells were washed and incubated with fresh media including the reagents for 24 h. […] RAW 264.7 murine macrophage cell line was obtained from the American Type Culture Collection (Rockville, Md.) and maintained in DMEM containing 10% FBS, 10 mM HEPES, 50 U/ml penicillin and 50 μg/mL streptomycin. 2×10^5 cells in 24-well plates were incubated with or without 10 μM menadione (Sigma, St. Louis, Mo.) for 24 hours. Gelatinolytic activity in the culture media of untreated and treated cells was analyzed by SDS-PAGE zymography (FIGS. 29A-29D). Gelatin Zymography was performed as follows: MMP activities were measured in macrophage-conditioned media. Proteinases in the conditioned media were concentrated by incubation with gelatin-agarose beads (Amersham Pharmacia, Arlington Heights, Ill.) for 2 h at 4° C. The beads were pelleted and washed, and proteinases eluted by incubation in sample buffer for 45 min at 37° C. The samples then were electrophoresed into 10% Zymogram gelatin gels (NOVEX, San Diego, Calif.). […] Gels were stained with 0.5% (wt/vol) Coomassie blue in 50% methanol and 10% acetic acid for 30 min, then destained. MMPs were detected as clear bands against a blue background.

MMP-2 and 9 mRNA = assay: RT-PCR of MMP-2 and 9 mRNA in cultured AMs from SP-D(−/−) mice; type: cell-based, mouse; conditions: 1 mM apocynin
AP-1 = assay: EMSA of nuclear extracts from AMs of SP-D(−/−) mice, AP-1 oligonucleotide; type: cell-based, mouse; conditions: AMs isolated from SP-D(−/−) mice
Protocol: (§1) To assess whether apocyanin affected binding of nuclear extracts, the following protocol was used: Nuclear extracts were obtained using a modified method previously described (Sever Chroneos, et al. Am. J. Physiol. 277:L79). Lavaged cells were lysed with Buffer A (10 mM Hepes, 10 mM KCl, 0.1 mM EDTA, 1.5 mM MgCl2, 0.2% Nonidet P-40 (NP-40), 1 mM DTT, 0.5 mM PMSF), followed by vortexing to shear the cytoplasmic membranes. Nuclei were pelleted by centrifugation at 3000 rpm for 3 min at 4° C. in a microcentrifuge. Nuclear proteins were extracted with high-salt buffer C (20 mM Hepes, 25% glycerol, 1.5 mM MgCl2, 0.1 mM EDTA, 1.5 mM MgCl2, 420 mM NaCl, 1 mM DTT, 0.5 mM PMSF) and stored at −80° C. Total nuclear protein concentrations were determined by bicinchoninic acid (BCA) method.

NF-κB = assay: EMSA of nuclear extracts from AMs of SP-D(−/−) mice, NF-κB oligonucleotide; type: cell-based, mouse; conditions: AMs isolated from SP-D(−/−) mice
Protocol: as §1

[1] = test system: RAW 264.7 murine macrophage cell line; assay: MMP-9 production by RAW 264.7 macrophages (zymography); type: cell-based, mouse; conditions: 10 μM, 24 hours
Protocol: RAW 264.7 murine macrophage cell line was obtained from the American Type Culture Collection (Rockville, Md.) and maintained in DMEM containing 10% FBS, 10 mM HEPES, 50 U/ml penicillin and 50 μg/mL streptomycin. 2×10^5 cells in 24-well plates were incubated with or without 10 μM menadione (Sigma, St. Louis, Mo.) for 24 hours. To assess whether ROS directly stimulated MMP production, RAW 264.7 macrophages were incubated with 10 μM of menadione, a ROS generator, for 24 hours.

SP-D(−/−) mice = assay: Treatment of SP-D(−/−) mice with purified mouse SP-D: saturated PC pools; type: in vivo; conditions: 2.9 μg intratracheally at 24 hour intervals, 3 to 7 doses
[2] = test system: influenza A virus A/Phillipines/82 (H3N2) (Phil/82); type: in vivo; conditions: SP-D −/− mice

## c1ccc2c(c1)[I+]c1ccccc1-2 [DPI, diphenylene iodonium chloride]
MMP-2 and 9
  gelatinolytic activity of MMP-2 and 9 in conditioned media: markedly suppressed MMP enzymatic activity; also recorded: markedly decreased MMP activity

## COc1cc(C(C)=O)ccc1O [apocynin]
MMP-2 and 9 mRNA
  MMP-2 and 9 mRNA: reduced MMP-2 and 9 mRNA
MMP-2 and 9
  gelatinolytic activity of MMP-2 and 9 in conditioned media: markedly suppressed MMP enzymatic activity; also recorded: markedly decreased MMP activity
AP-1
  DNA binding activity to an AP-1 oligonucleotide (EMSA): decreased DNA binding activity
NF-κB
  binding of nuclear extracts to NF-κB oligonucleotide (EMSA): reduced DNA binding activity of NF-κB
NF-κB; listed as Apocynin
  binding of nuclear extracts to NF-κB oligonucleotide (EMSA): reduced binding of nuclear extracts

## CC(=O)N[C@@H](CS)C(=O)O [NAC, N-acetylcysteine]
MMP-2 and 9
  gelatinolytic activity of MMP-2 and 9 in conditioned media: reduced gelatinolytic activity; also recorded: inhibited gelatinolytic activities of MMP-2 and 9

## S=C(S)N1CCCC1 [PDTC, pyrrolidine dithiocarbamate]
MMP-2 and 9
  gelatinolytic activity of MMP-2 and 9 in conditioned media: reduced gelatinolytic activity; also recorded: inhibited gelatinolytic activities of MMP-2 and 9

## CC1=CC(=O)c2ccccc2C1=O [menadione]
[1]
  MMP-9 production: increased

B1: purified mouse SP-D: Surfactant protein D purified from BAL fluid of GMCSF and SP-A double null mutant mice on maltosyl-agarose (protein, UniProt P50404 20-374, looked up)
Pulmonary …: AEMKSLSQRSVPNTCTLVMCSPTENGLPGRDGRDGREGPRGEKGDPGLPGPMGLSGLQGPTGPVGPKGENGSAGEPGPKGERGLSGPPGLPGIPGPAGKEGPSGKQGNIGPQGKPGPKGEAGPKGEVGAPGMQGSTGAKGSTGPKGERGAPGVQGAPGNAGAAGPAGPAGPQGAPGSRGPPGLKGDRGVPGDRGIKGESGLPDSAALRQQMEALKGKLQRLEVAFSHYQKAALFPDGRSVGDKIFRTADSEKPFEDAQEMCKQAGGQLASPRSATENAAIQQLITAHNKAAFLSMTDVGTEGKFTYPTGEPLVYSNWAPGEPNNNGGAENCVEIFTNGQWNDKACGEQRLVICEF
MMP-2 and 9; mouse SP-D 5 μg/ml in vitro
  MMP production by AMs: did not reduce MMP production
SP-D(−/−) mice
  Saturated PC levels in alveolar lavage and total lung lavage (lipid accumulation): partial correction of lipid accumulation; also recorded: decreased both alveolar and saturated PC pools

B2: recombinant SP-D: Recombinant human SP-D dodecamers secreted by CHO-K1 cells transfected with full-length human cDNA (protein)
chain: B1 Pulmonary …
[2]; 5 μg intratracheal co-administration, 3 days after infection, untreated 1.6×10^5±4.0×10^4, mean±SEM
  IAV (Phil/82) titer in lung: 7.5×10^4±1.4×10^4 ff/gram lung
[2]; co-administration of recombinant SP-D
  clearance of IAV from the lung: normalized viral clearance; also recorded: enhanced clearance
